According to patent US20100291236A1, “OSMIUM COMPOUNDS” (THE UNIVERSITY OF WARWICK, priority 2006, published 2010):
Entries after “also recorded” stand apart in the source; their conditions may differ. Where two headings read alike, the source gives them in different places.

Legend:
[1] = Acidity (pKa / pKa*) of coordinated water, 1H NMR pH* titration
Description: pKa* calculations. […] The chemical shifts of the arene ring protons were plotted against pH*. The pH* titration curves were fitted to the Henderson-Hasselbalch equation, with the assumption that the observed chemical shifts are weighted averages according to the populations of the protonated and deprotonated species.

[2] = tested on: 9-ethyl guanine (9EtG); test: Reaction with nucleobase model 9-ethyl guanine, 1H NMR; type: binding; conditions: for % 9EtG nucleobase adduct: 1 mM complex, 1 mol equivalent 9EtG, D2O; for binding to 9EtG (nucleobase adduct formation): time not given; for +1 eq. 9-EtG (% adduct formation): pH* close to 7.4, 298 K
Description: (§1) Since DNA is believed to be the main target for metal anticancer drugs, nucleobase binding reactions of compounds 3-6, with nucleobase models, 9-ethyl guanine (9EtG) and 9-ethyl adenine (9EtA), were investigated.
(§2) Solutions of 3-6 (1 mM) (present as an equilibrium between 3-6 and their respective aqua adducts as the major species) with 1 mol equivalent of 9EtG (Table 14) or 9EtA (Table 15) in D2O were prepared and ^1H NMR spectra were taken at different time intervals.
(§3) Interactions with Nucleobases. The reaction of compounds 8-12 with nucleobases typically involved addition of a solution containing 1 mol equiv of nucleobase in D2O, to an equilibrium solution of compounds 8-12 in D2O (>90% aqua). The pH* value of the sample was adjusted if necessary so as to remain close to 7.4 (physiological). ^1H NMR spectra of these solutions were recorded at 298 K after various time intervals.

[3] = tested on: 9-ethyl adenine (9EtA); test: Reaction with nucleobase model 9-ethyl adenine, 1H NMR; type: binding; conditions: for % 9EtA nucleobase adduct: 1 mM complex, 1 mol equivalent 9EtA, D2O; for binding to 9EtA (nucleobase adduct formation): time not given; for +1 eq. 9-EtA (% adduct formation): pH* close to 7.4, 298 K
Description: as §1, §2, §3

[4] = tested on: human lung A549 cancer cells; test: Cytotoxicity towards A549 cells, sulforhodamine B (SRB) assay; type: cell-based
Description: (§4) Experimental: Cytotoxicity Towards A2780 and A549 Human Cancer Cells. After plating, human ovarian A2780 cancer cells were treated with Os^II complexes on day 3, and human lung A549 cancer cells on day 2, at concentrations ranging from 2 μM to 50 μM. Solutions of the Os^II complexes were made up in 0.125% DMSO to assist dissolution. Cells were exposed to the complexes for 24 h, washed, supplied with fresh medium, allowed to grow for three doubling times (72 h), and then the protein content measured (proportional to cell survival) using the sulforhodamine B (SRB) assay.
(§5) Cancer Cell Cytotoxicity. After plating, human ovarian A2780 cancer cells were treated with OsII complexes on day 3, and human lung A549 cancer cells on day 2, at concentrations ranging from 0.1 μM to 100 μM. Solutions of the OsII complexes were made up in 0.125% DMSO to assist dissolution. Cells were exposed to the complexes for 24 h, washed, supplied with fresh medium, allowed to grow for three doubling times (72 h), and then the protein content measured (proportional to cell survival) using the sulforhodamine B (SRB) assay.10

[5] = Hydrolysis (aquation) kinetics followed by 1H NMR; type: physicochemical
Description: Hydrolysis. […] The rate of hydrolysis was determined by fitting plots of concentrations (determined by ^1H NMR peak integrals) versus time to a pseudo first-order equation using ORIGIN version 5.0 (Microcal Software Ltd.).

[6] = tested on: human ovarian A2780 cancer cells; test: Cytotoxicity towards A2780 cells, sulforhodamine B (SRB) assay; type: cell-based
Description: as §4, §5

[7] = Effect of chloride concentration on aqua adduct formation; type: physicochemical; conditions: 1 mM complex in D2O, t = 10 min
Description: The effects of chloride levels on the distribution of AFAP42 (“prodrug”) and its aqua analogue (“active species”) were investigated. […] Results are summarised in table 6, showing how the hydrolysis of AFAP42 is suppressed in solutions with chloride concentrations similar to those found in blood plasma. At chloride concentrations typical of the cells cytoplasm, complex AFAP42 hydrolyses to some extent and at chloride concentrations typical of the nucleus (where the proposed target, DNA, can be found), the complex is present predominantly as the “active species” the aqua complex.
The effects of chloride concentrations typical of blood plasma (100 mM), cell cytoplasm (22.7 mM) and cell nucleus (4 mM) on the aqueous chemistry of 3 and 6 were investigated. ^1H NMR spectra of 3 or 6 (1 mM) were recorded within 10 min of sample preparation and after incubation at 310 K for 24 h.

[8] = as above; type: physicochemical; conditions: 1 mM complex in D2O, t = 26 h
[9] = Table 8, compounds 1-6, read-out: A549 IC50
[10] = 288 K, 5% MeOD-d4/95% D2O, pH* 2
[11] = 298 K, 5% MeOD-d4/95% D2O, pH* 2
[12] = Table 8, compounds 1-6, read-out: A2780 IC50
[13] = Table 19, read-out: IC50 (μM) in A2780
[14] = Table 7, 24 h exposure, 72 h growth, 2-50 μM, read-out: IC50/μM A549
[15] = Table 7, 24 h exposure, 72 h growth, 2-50 μM, read-out: IC50/μM A2780

## O=C(O)c1ccnc(C(=O)[O][Os][Cl])c1.c1ccc(-c2ccccc2)cc1 [Compound 5, [(η^6-bip)Os(4-CO2H-pico)Cl]]
[1]
  pKa* of the aqua adduct: 6.61
[2]; t = 10
  % 9EtG nucleobase adduct: 0%
[2]; t = 24 h
  % 9EtG nucleobase adduct: 100%
[2]; t = 72 h
  % 9EtG nucleobase adduct: 100%
[2]
  binding to 9EtG (nucleobase adduct formation): 100%
[3]; t = 10
  % 9EtA nucleobase adduct: 0%
[3]; t = 24 h
  % 9EtA nucleobase adduct: 100%
[3]; t = 72 h
  % 9EtA nucleobase adduct: 100%
[3]
  binding to 9EtA (nucleobase adduct formation): 100%
[4]; [9]
  IC50: > 50 µM
[5]; 5% MeOD-d4/95% D2O, pH* 2
  Extent of hydrolysis at equilibrium (aqua adduct): 100%
[5]; [10]
  Hydrolysis k/h^−1: 0.158 ± 0.011 h⁻¹
[5]; [11]
  Hydrolysis k/h^−1: 0.384 ± 0.004 h⁻¹
[6]; [12]
  IC50: > 50 µM

## [NH2][Pt]([NH2])([Cl])[Cl] [CDDP, cisplatin, reference compound]
[6]; [13]
  IC50: ~0.5 µM

## Cc1cccc(C(=O)[O][Os][Cl])n1.c1ccc(-c2ccccc2)cc1 [Compound 3, [(η^6-bip)Os(6-Me-pico)Cl]]
[1]
  pKa* of the aqua adduct: 6.34
[2]; t = 10
  % 9EtG nucleobase adduct: 0%
[2]; t = 24 h
  % 9EtG nucleobase adduct: 30%
[2]; t = 72 h
  % 9EtG nucleobase adduct: 30%
[2]
  binding to 9EtG (nucleobase adduct formation): 30%
[7]; 4 mM NaCl
  % aqua adduct: 50%
[7]; 22.7 mM NaCl
  % aqua adduct: 60%
[7]; 100 mM NaCl
  % aqua adduct: 35%
[3]; t = 10
  % 9EtA nucleobase adduct: 0%
[3]; t = 24 h
  % 9EtA nucleobase adduct: 9%
[3]; t = 72 h
  % 9EtA nucleobase adduct: 9%
[3]
  binding to 9EtA (nucleobase adduct formation): 9%
[4]; [9]
  IC50: > 50 µM
[8]; 4 mM NaCl
  % aqua adduct: 70%
[8]; 22.7 mM NaCl
  % aqua adduct: 49%
[8]; 100 mM NaCl
  % aqua adduct: 27%
[5]; [10]
  Hydrolysis k/h^−1: 0.219 ± 0.005 h⁻¹
[5]; [11]
  Hydrolysis k/h^−1: 0.676 ± 0.039 h⁻¹
[6]; [12]
  IC50: > 50 µM

## O=C([O][Os][Cl])c1cccc(Br)n1.c1ccc(-c2ccccc2)cc1 [Compound 1, [(η^6-bip)Os(6-Br-pico)Cl]]
[4]; [9]
  IC50: > 50 µM
[5]; [11]
  Hydrolysis k/h^−1: 0.345 ± 0.0002 h⁻¹
[6]; [12]
  IC50: > 50 µM

## CC(=O)C=C(C)[O][Ru][Cl].Cc1ccc(C(C)C)cc1 [MMS6, reference compound]
[1]
  pKa of water coordinated on hydrolysis (aqua adduct of complex): 9.4
[4]; [14]
  IC50: > 100 µM
[6]; [15]
  IC50: 19 µM

## CC(=O)C=C(C)[O][Os][Cl].Cc1ccc(C(C)C)cc1 [AFAP29]
[1]
  pKa of water coordinated on hydrolysis (aqua adduct of complex): 7.63
[4]; [14]
  IC50: > 100 µM
[6]; [15]
  IC50: > 100 µM

## C1=CCC2=C(C1)Cc1ccccc1C2.F[P-](F)(F)(F)(F)F.NCCN.[Cl][Ru+] [HC11, reference compound]
[1]
  pKa of water coordinated on hydrolysis (aqua adduct of complex): 8.01
[4]; [14]
  IC50: 0.5 µM
[6]; [15]
  IC50: 0.5 µM

## O=C(c1ccccn1)[N]([Os][Cl])c1ccccc1.c1ccc(-c2ccccc2)cc1 [Compound 10, [(η^6-bip)Os(N-Ph-picolinamide)Cl]PF6]
[2]; t = 0.17 h
  +1 eq. 9-EtG (% adduct formation): 73%
[2]; t = 24 h
  +1 eq. 9-EtG (% adduct formation): 73%
[3]; t = 0.17 h
  +1 eq. 9-EtA (% adduct formation): 0%
[3]; t = 24 h
  +1 eq. 9-EtA (% adduct formation): 0%
[5]; Table 18, 288 K, 0.8 mM
  Hydrolysis k/h^−1: ≧5.9 h^−1

## O=C([O][Os][Cl])c1cc(Cl)ccn1.c1ccc(-c2ccccc2)cc1 [Compound 4, [(η^6-bip)Os(4-Cl-pico)Cl]]
[1]
  pKa* of the aqua adduct: 6.30
[2]; t = 10
  % 9EtG nucleobase adduct: 0%
[2]; t = 24 h
  % 9EtG nucleobase adduct: 59%
[2]; t = 72 h
  % 9EtG nucleobase adduct: 76%
[3]; t = 10
  % 9EtA nucleobase adduct: 0%
[3]; t = 24 h
  % 9EtA nucleobase adduct: 62%
[3]; t = 72 h
  % 9EtA nucleobase adduct: 71%
[4]; [9]
  IC50: 10 to 50 µM
[5]; 5% MeOD-d4/95% D2O, pH* 2
  Extent of hydrolysis at equilibrium (aqua adduct): 100%
[5]; [10]
  Hydrolysis k/h^−1: 0.288 ± 0.001 h⁻¹
[5]; [11]
  Hydrolysis k/h^−1: 0.656 ± 0.032 h⁻¹
[6]
  Activity in A2780 cancer cell line: toxic
[6]; [12]
  IC50: 4.8 µM

## O=C([O][Ru][Cl])C1CCCCN1.c1ccc(-c2ccccc2)cc1 [RF16, reference compound]
[6]; [15]
  IC50: > 100 µM

## C1=CCC2=C(C1)Cc1ccccc1C2.F[B-](F)(F)F.NCCN.[Cl][Os+] [AFAP65, [(η^6-THA)Os(en)Cl]BF4]
[1]
  pKa of water coordinated on hydrolysis (aqua adduct of complex): 6.33
[4]; [14]
  IC50: 6.4 µM
[6]; [15]
  IC50: 9.4 µM

## Cc1ccc(C(C)C)cc1.NCCC(=O)[O][Ru][Cl] [RF11, reference compound]
[6]; [15]
  IC50: > 100 µM

## Cc1ccc(C(C)C)cc1.O=C1c2cccc[n+]2[Os-]([Cl])[N]1c1ccccc1[N+](=O)[O-] [Compound 11]
[2]; t = 0.17 h
  +1 eq. 9-EtG (% adduct formation): 69%
[2]; t = 24 h
  +1 eq. 9-EtG (% adduct formation): 69%
[3]; t = 0.17 h
  +1 eq. 9-EtA (% adduct formation): 0%
[3]; t = 24 h
  +1 eq. 9-EtA (% adduct formation): 0%
[5]; Table 18, 288 K, 0.8 mM
  Hydrolysis k/h^−1: ≧5.9 h^−1

## Cc1ccc(C(C)C)cc1.NCC(=O)[O][Ru][Cl] [RF01, reference compound]
[1]
  pKa of water coordinated on hydrolysis (aqua adduct of complex): 8.65
[6]; [15]
  IC50: > 100 µM

## O=C([O][Os][Cl])c1cccc(O)n1.c1ccc(-c2ccccc2)cc1 [Compound 2, [(η^6-bip)Os(6-OH-pico)Cl]]
[4]; [9]
  IC50: > 50 µM
[6]; [12]
  IC50: > 50 µM

## CC(N)C(=O)[O][Ru][Cl].Cc1ccc(C(C)C)cc1 [RF02(a), reference compound]
[6]; [15]
  IC50: > 100 µM

## [(η^6-p-cym)Os(O2C6H3CH3NCH3)Cl] [AFAP57]
[1]
  pKa of water coordinated on hydrolysis (aqua adduct of complex): 8.31
[4]; [14]
  IC50: > 100 µM
[6]; [15]
  IC50: 40 µM

## [(η^6-p-cym)Os(N-2,4-difluoride-Ph-picolinamide)Cl]PF6 [Compound 8]
[2]; t = 0.17 h
  +1 eq. 9-EtG (% adduct formation): 56%
[2]; t = 24 h
  +1 eq. 9-EtG (% adduct formation): 56%
[3]; t = 0.17 h
  +1 eq. 9-EtA (% adduct formation): 0%
[3]; t = 24 h
  +1 eq. 9-EtA (% adduct formation): 0%
[4]
  Activity in A549 cancer cell line: moderately cytotoxic
[4]; Example 6, read-out: IC50 in human lung A549 cancer cell line
  IC50: 10 to 50 µM
[5]; Table 18, 288 K, 0.8 mM
  Hydrolysis k/h^−1: ≧5.9 h^−1
[6]
  Activity in A2780 cancer cell line: cytotoxic; also recorded: active
[6]; [13]
  IC50: 8.2 µM

## Cc1cc(C)c(NC(=O)c2ccccn2)c(C)c1.Cc1ccc(C(C)C)cc1.F[P-](F)(F)(F)(F)F.[Cl][Os+] [Compound 9, [(η^6-p-cym)Os(N-2,4,6-trimethyl-Ph-picolinamide)Cl]PF6]
[2]; t = 0.17 h
  +1 eq. 9-EtG (% adduct formation): 0%
[2]; t = 24 h
  +1 eq. 9-EtG (% adduct formation): 0%
[3]; t = 0.17 h
  +1 eq. 9-EtA (% adduct formation): 0%
[3]; t = 24 h
  +1 eq. 9-EtA (% adduct formation): 0%
[5]
  Rate of hydrolysis: very slowly
[5]; Table 18, 310 K, 0.8 mM
  Hydrolysis k/h^−1: 0.16 ± 0.01 h⁻¹
[6]
  Activity in A2780 cancer cell line: inactive
[6]; [13]
  IC50: > 50 µM
